Source: US8691818B2, “Cyclic triazo and diazo sodium channel blockers” (University Of Greenwich, priority 2008, dated 2014)
Counter-ions that a name gives are not always drawn.

Tests used:
sodium channel = assay: [14C]guanidine flux: veratrine-evoked uptake of [14C]guanidine into rat forebrain synaptosomes (primary sodium channel assay); format: biochemical; settings: 30° for 2½ min
Protocol: The screening strategy is designed to select compounds with appropriate sodium channel blocking activity and low side effect liability. To this end all compounds are processed through the primary sodium channel assay (veratrine-evoked uptake of [^14C]guanidine into rat forebrain synaptosomes) and IC50 values computed from generated concentration-effect curves.
Experiments were performed using forebrain (whole brain less cerebellum/medulla) from Male Wistar rats weighing 175-250 g. All efforts were made to reduce the number of animals used and all experiments were carried out in accordance with the UK Animals (Scientific Procedures) Act, 1986 and the European Community Council Directive of 24 Nov. 1986 (86/609/EEC). Following killing of animals by stunning and decapitation, the forebrain (whole brain less cerebellum/medulla) was rapidly dissected and transferred to a weighed tube containing ice-cold 0.25M sucrose.
Synaptosomes (heavy and light mitochondrial fraction containing synaptosomes) were prepared by transferring the forebrain (of known wet weight) to a glass Potter vessel to which 9 volumes ice-cold 0.25M sucrose had been added and homogenising, using a teflon pestle, by 8 ‘up and down strokes’ of a Braun Potter S motor driven homogeniser set to 900 rpm. The resulting homogenate was centrifuged at 1036×g at 4° for 10 min and the supernatant collected. The remaining pellet was resuspended, as above, in fresh ice-cold 0.25M sucrose and the centrifugation step repeated. The supernatant fractions were pooled and centrifuged at 40,000×g (average) at 4° for 15 min and the resulting pellet resuspended in the appropriate assay buffer at a concentration of 20-25 mg wet weight per ml appropriate assay buffer.
Both assays were carried out using 14 ml polypropylene test tubes to which a range of concentrations of the compounds under test were added.
The [^14C] guanidinine flux assay was measured using the method of Pauwels P J et al (1986) but carried out@30° for 2½ min.
(§1) Data are presented as mean±sem of number of experiments indicated in brackets.

[1] = target: T1, DiHydroFolate Reductase (DHFR) (Rattus norvegicus, UniProt Q920D2); assay: Inhibition of binding of [3H]methotrexate to rat liver homogenate supernatant; settings: for inhibition at 125 µM: read-out: [3H]mtx binding (% inhibition @ 125 μM); for inhibition at 99 µM: read-out: [3H]mtx binding % inhibition (* 99 μM, *** uses fresh batch of supernatant), 99 μM, fresh batch of supernatant
T1 construct: from tissue; host or cells: rat liver homogenate supernatant
T1 sequence (Q920D2 1-187): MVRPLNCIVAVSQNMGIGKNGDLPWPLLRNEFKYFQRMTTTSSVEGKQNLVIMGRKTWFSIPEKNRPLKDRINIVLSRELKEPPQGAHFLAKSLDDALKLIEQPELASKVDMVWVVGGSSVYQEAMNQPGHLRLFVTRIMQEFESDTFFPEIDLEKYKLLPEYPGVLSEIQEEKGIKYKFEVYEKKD
Protocol: All steps were carried out at 4° (or on ice). Freshly dissected rat liver was dissected into 0.25M ice-cold Sucrose and subsequently homogenised (U-turrax) in 50 mM pH 6.0 phosphate buffer (10 ml/g tissue) containing 15 mM Dithiothreitol. The resulting homogenate was centrifuged@47,500×g for 20 min and supernatant (filtered through cotton wool to remove fatty lumps) stored @ −80° before use (Rothenberg et al).
Inhibition of the binding of [^3H]methotrexate to rat liver homogenate supernatant fractions were carried out essentially as described by Arons et al, 1975.
as §1

Row | IC50 (sodium channel) [µM] | inhibition at 125 µM [1] [%] | SMILES | further results
1 | 955 | 70 | Cn1nc(-c2ccc(Oc3ccc(-c4nn(C)c(=N)nc4N)cc3)cc2)c(N)nc1=N [CEN-116] | –
2 | 34 | 104 | Nc1nnc(-c2ccc(F)c(Oc3ccccc3)c2)c(N)n1 [CEN-184, 3,5-Diamino-6-(4-fluoro-3-phenoxylphenyl)-1,2,4-triazine tosylate] | –
3 | 372 | 94 | CC(C)OCCn1nc(-c2cccc(Cl)c2Cl)c(N)nc1=N [CEN-91, 5(3)-Amino-6-(2,3-dichlorophenyl)-2,3(2,5)-dihydro-3(5)-imino-2-(2-isopropoxy)ethyl-1,2,4-triazine] | –
4 | 9 | – | Cn1nc(-c2sc(Cl)c(Cl)c2Cl)c(N)nc1=N [CEN-194, 5(3)-Amino-6-{2-(3,4,5-trichloro)thienyl}-2,3(2,5)-dihydro-3(5)-imino-2-methyl-1,2,4-triazine methanesulfonate] | inhibition at 99 µM [1]: -6%
5 | 4.9 | 6 | Cc1ccc(-c2nc(=N)n(C)nc2-c2ccc(C)cc2)cc1 [CEN-134, 3-Amino-2-methyl-5,6-bis(4-methylphenyl)-1,2,4-triazine mesylate] | –
6 | 724 | 101 | Nc1cnc(-c2cccc3c2OC(F)(F)O3)c(N)n1 [CEN-89, 2,6-Diamino-3-(2,2-difluorobenzodioxol-4-yl)pyrazine] | –
7 | 159 | 34 | Nc1nnc(-c2ccc3ccccc3n2)c(N)n1 [CEN-173, 3,5-Diamino-6-(2-quinolyl)-1,2,4-triazine] | –
8 | 58.9 | 25 | Cn1nc(-c2ccc(Oc3ccccc3)cc2)c(N)nc1=N [CEN-102, 5(3)-Amino-6-(4-phenoxyphenyl)-2,3(2,5)-dihydro-3(5)-imino-2-methyl-1,2,4-triazine methanesulfonate] | –
9 | 871 | 3 | Cn1nc(-c2ccccc2OC(F)F)c(N)nc1=N [CEN-146, 5(3)-Amino-6-(2-difluoromethoxyphenyl)-2,3(2,5)-dihydro-3(5)-imino-2-methyl-1,2,4-triazine methanesulfonate] | –
10 | > 2000 | 17 | Nc1nnc(-c2cc3ccccc3oc2=O)c(N)n1 [CEN-133] | –
11 | 16.2 | 27 | Cn1nc(C2(c3ccc(Cl)cc3)CCCC2)c(N)nc1=N [CEN-150, 5(3)-Amino-6-{1-[1-(4-chlorophenyl)]cyclopentyl}-2,3(2,5)-dihydro-3(5)-imino-2-methyl-1,2,4-triazine methanesulfonate] | –
12 | 12 | 57 | CCn1nc(-c2cccc(-c3ccccc3)c2)c(N)nc1=N [CEN-162, 5(3)-Amino-6-(3-biphenyl)-2,3(2,5)-dihydro-3(5)-imino-2-ethyl-1,2,4-triazine methanesulfonate] | –
13 | 28 | 27 | CCn1nc(-c2cccc(C(F)(F)F)c2Cl)c(N)nc1=N [CEN-178, 5(3)-Amino-6-(2-chloro-3-trifluoromethyphenyl)-2,3(2,5)-dihydro-3(5)-imino-2-ethyl-1,2,4-triazine methanesulphonate] | –
14 | > 2000 | -2 | Nc1nnc(-c2cccnc2Oc2ccccc2)c(N)n1 [CEN-167, 3,5-Diamino-6-[3-(2-phenoxypyidyl)]-1,2,4-triazine] | –

Further lines, the molecule ahead of its results:

Row | SMILES | IC50 (sodium channel) [µM] | inhibition at 125 µM [1] [%] | further results
15 | Nc1nnc(-c2cc(C(F)(F)F)cc(C(F)(F)F)c2)c(N)n1 [CEN-175, 3,5-Diamino-6-[3,5 (bis-trifluoromethyl)phenyl]-1,2,4-triazine] | – | – | IC50 (sodium channel; listed as 175): > 2000 µM; [3H]mtx binding (% inhibition @ 125 μM) ([1]; listed as 175, 125 µM): −4%
16 | Cn1nc2c3ccccc3c3ccccc3c2nc1=N [CEN-136] | 229 | 27 | –
17 | Nc1nnc(-c2ccco2)c(-c2ccco2)n1 [CEN-196, 3-Amino-5,6-bis(2-furyl)-1,2,4-triazine] | 912 | – | inhibition at 99 µM [1]: 41%
18 | CCn1nc(-c2cc(OC)c(OC)c(OC)c2)c(N)nc1=N [CEN-119, 5(3)-Amino-6-(3,4,5-trimethoxyphenyl)-2,3(2,5)-dihydro-3(5)-imino-2-ethyl-1,2,4-triazine methanesulfonate] | 1950 | 52 | –
19 | Nc1nnc(-c2cccc(-c3nnc(N)nc3N)c2)c(N)n1 [CEN-186] | > 2000 | 83 | –
20 | COc1ccc2c(OC)cccc2c1-c1nnc(N)nc1N [CEN-158] | – | – | IC50 (sodium channel; listed as 158): > 1000 µM; [3H]mtx binding (% inhibition @ 125 μM) ([1]; listed as 158, 125 µM): −1%
21 | C/C(=C\c1ccccc1)c1nnc(N)nc1N [CEN-112, 3,5-Diamino-6-[E-2-(3-phenyl)propenyl]-1,2,4-triazine] | 1000 | 84 | –
22 | Nc1nnc(-c2cnc(Cl)c(Cl)c2)c(N)n1 [CEN-168, 3,5-Diamino-6-[3-(5,6-dichloropyidyl)]-1,2,4-triazine] | 1000 | 95 | –
23 | Nc1nnc(-c2cccnc2Cl)c(N)n1 [CEN-164, 3,5-Diamino-6-[3-(2-chloropyidyl)]-1,2,4-triazine] | 692 | 0 | –
24 | Nc1nnc(-c2ccc(Cl)nc2)c(N)n1 [CEN-191, 3,5-Diamino-6-[3-(6-chloro-pyridyl)]-1,2,4-triazine] | 1950 | 31 | –
25 | CC(C)c1cc(C(C)C)c(-c2nnc(N)nc2N)c(C(C)C)c1 [CEN-180, 3,5-Diamino-6-(2,4,6-triisopropylphenyl)-1,2,4-triazine tosylate] | > 2000 | -2 | –
26 | Nc1nnc(-c2cccc(C(F)(F)F)c2Cl)c(N)n1 [CEN-176, 3,5-Diamino-6-(2-chloro-3-trifluoromethylphenyl)-1,2,4-triazine] | 309 | 55 | –
27 | CCCC(CCC)c1nnc(N)nc1N [CEN-170, 3,5-Diamino-6-(1-propylbutyl)-1,2,4-triazine tosylate] | 263 | 29 | –
28 | Nc1nnc(-c2ccc(Oc3ccc(-c4nnc(N)nc4N)cc3)cc2)c(N)n1 [CEN-111, Bis-[3,5-Diamino-6-(4-ARYL)-1,2,4-triazine]] | 912 | 97 | –
29 | Nc1nnc(-c2cccc(OCc3ccc(C(F)(F)F)cc3C(F)(F)F)c2)c(N)n1 [CEN-171, 3,5-Diamino-6-[3-(2,4-trifluoromethylbenzyloxy)phenyl]-1,2,4-triazine] | 2 | – | [3H]mtx binding (% inhibition @ 125 μM) [1]: 91%
30 | Cn1cc(-c2cccc(Cl)c2Cl)c(N)nc1=N [CEN-42, 4(2)-Amino-5-(2,3-dichlorophenyl)-2,4(2,5)-dihydro-2(4)-imino-1-methyl pyrimidine] | – | – | IC50 (sodium channel; listed as 42): 617 µM; [3H]mtx binding (% inhibition @ 125 μM) ([1]; listed as 42, 125 µM): 32%
31 | Nc1nnc(-c2cc(F)c(Cl)nc2Cl)c(N)n1 [CEN-190, 3,5-Diamino-6-[3-(2,6-dichloro-5-fluoropyidyl)]-1,2,4-triazine] | 813 | 6 | –
32 | Cn1cc(-c2cccc(Cl)c2Cl)c(N)nc1=N [CEN-43, 4(2)-Amino-5-(2,3-dichlorophenyl)-2,4(2,5)-dihydro-2(4)-imino-1-methylpyrimidine] | – | – | IC50 (sodium channel; listed as 43): 631 µM; [3H]mtx binding (% inhibition @ 125 μM) ([1]; listed as 43, 125 µM): 20%
33 | CCn1nc(-c2sc(Cl)c(Cl)c2Cl)c(N)nc1=N [CEN-195, 5(3)-Amino-6-{2-(3,4,5-trichloro)thienyl}-2,3(2,5)-dihydro-3(5)-imino-2-ethyl-1,2,4-triazine methanesulfonate] | 4 | – | inhibition at 99 µM [1]: -2%
34 | COc1ccc2c(OC)cccc2c1-c1nnc(N)nc1N [CEN-156] | – | – | IC50 (sodium channel; listed as 156): 246 µM; [3H]mtx binding (% inhibition @ 125 μM) ([1]; listed as 156, 125 µM): 32%
